Legend:
[1] = tested on: EBR1 (DNA, G4) GGGCAGGGGGTGATGGGGAGGAGCCAGGG; assay: UV/Vis titration; set-up: unit not given here; settings: 100 mM K+, 10 mM lithium cacodylate, pH 7.2, independent-and-equivalent-sites model
[2] = tested on: SA5 (DNA, G4) GGAAGGAGGGGTGACAGGG; assay: UV/Vis titration; set-up: unit not given here; settings: 100 mM K+, 10 mM lithium cacodylate, pH 7.2, independent-and-equivalent-sites model
[3] = tested on: mit9438 (DNA, G4) GGCGTAGGTTTGGTCTAGGG; assay: UV/Vis titration; set-up: unit not given here; settings: 100 mM K+, 10 mM lithium cacodylate, pH 7.2, independent-and-equivalent-sites model
[4] = tested on: ds26 (DNA, duplex) CAATCGGATCGAATTCGATCCGATTG; assay: UV/Vis titration; settings: 100 mM K+, 10 mM lithium cacodylate, pH 7.2, independent-and-equivalent-sites model
[5] = tested on: F-SA3-T (DNA, G4) GGGGCTAATTGGGGCTGGTGG; assay: FRET melting; settings: 10 mM K+, 90 mM Li+; 10 mM lithium cacodylate, pH 7.2; 5 µM compound, 0.2 µM DNA
[6] = tested on: F-SA5-T (DNA, G4) GGAAGGAGGGGTGACAGGG; assay: FRET melting; settings: 10 mM K+, 90 mM Li+; 10 mM lithium cacodylate, pH 7.2; 5 µM compound, 0.2 µM DNA
[7] = tested on: F-mit9438-T (DNA, G4) GGCGTAGGTTTGGTCTAGGG; assay: FRET melting; settings: 10 mM K+, 90 mM Li+; 10 mM lithium cacodylate, pH 7.2; 5 µM compound, 0.2 µM DNA
[8] = tested on: F-ds26-T (DNA, duplex) CAATCGGATCGAATTCGATCCGATTG; assay: FRET melting; settings: 10 mM K+, 90 mM Li+; 10 mM lithium cacodylate, pH 7.2; 5 µM compound, 0.2 µM DNA
[9] = tested on: F-21-T (DNA, G4) GGGTTAGGGTTAGGGTTAGGG; assay: FRET melting; settings: 10 mM K+, 90 mM Li+; 10 mM lithium cacodylate, pH 7.2; 5 µM compound, 0.2 µM DNA
[10] = tested on: F-mit6363-T (DNA, G4) AGGGACGCGGGCGGGGGATATAGGGT; assay: FRET melting; settings: 10 mM K+, 90 mM Li+; 10 mM lithium cacodylate, pH 7.2; 5 µM compound, 0.2 µM DNA
[11] = tested on: F-EBR1-T (DNA, G4) GGGCAGGGGGTGATGGGGAGGAGCCAGGG; assay: FRET melting; settings: 10 mM K+, 90 mM Li+; 10 mM lithium cacodylate, pH 7.2; 5 µM compound, 0.2 µM DNA

Row | ΔTm [8] [°C] | Ka ([1]; 7 µM ligand) | Ka ([2]; 7 µM ligand) | Ka ([3]; 7 µM ligand) | Ka ([4]; 7 µM ligand) [µM⁻¹] | Compound | also measured
1 |  |  |  |  |  | C[N+](C)(C)c1ccc(/C=C/c2cc(/C=C/c3ccc([N+](C)(C)C)cc3)cc(/C=C/c3ccc([N+](C)(C)C)cc3)c2)cc1 | Ka ([1]; 4 µM ligand): 0.672; Ka ([2]; 4 µM ligand): 0.651; Ka ([3]; 4 µM ligand): 0.821; Ka ([4]; 4 µM ligand): 0.083 µM⁻¹; ΔTm [5]: 31.3 ± 0.6 °C
2 |  |  |  |  |  | CCCNc1cc2c3c(ccc4c3c1C(=O)N(CCCN(C)C)C4=O)C(=O)N(CCCN(C)C)C2=O | ΔTm [6]: 4.7 ± 1.0 °C
3 |  |  |  |  |  | C[n+]1ccc(-c2c3nc(c(-c4cc[n+](C)cc4)c4ccc([nH]4)c(-c4cc[n+](C)cc4)c4nc(c(-c5cc[n+](C)cc5)c5ccc2[nH]5)C=C4)C=C3)cc1 | ΔTm [6]: 29.0 ± 2.1 °C; ΔTm [7]: 31.0 ± 0.0 °C
4 | 0.7 ± 0.6 |  |  |  |  | NCCOc1cc(C(=O)Nc2cc(OCCN)c3ccccc3n2)nc(C(=O)Nc2cc(OCCN)c3ccccc3n2)c1 | ΔTm [9]: 24.0 ± 1.1 °C
5 | 9.0 ± 1.0 | 0.367 | 0.513 | 1.548 | 0.267 | C[n+]1ccc(/C=C/c2cc(/C=C/c3cc[n+](C)cc3)c(/C=C/c3cc[n+](C)cc3)cc2/C=C/c2cc[n+](C)cc2)cc1 | ΔTm [10]: 33.0 ± 0.0 °C; ΔTm [11]: 35.3 ± 0.6 °C; ΔTm [9]: 34.7 ± 0.0 °C
6 |  | 0.528 | 1.411 | 1.167 | 0.165 | C[n+]1ccc(/C=C/c2cc(/C=C/c3cc[n+](C)cc3)cc(/C=C/c3cc[n+](C)cc3)c2)cc1 | 
7 | -4.7 ± 0.6 | 0.801 | 1.065 | 1.420 | 0.562 | C[N+](C)(C)c1ccc(/C=C/c2cc(/C=C/c3ccc([N+](C)(C)C)cc3)c(/C=C/c3ccc([N+](C)(C)C)cc3)cc2/C=C/c2ccc([N+](C)(C)C)cc2)cc1 | ΔTm [5]: 9.7 ± 0.6 °C

Reference: paper PMC11679705 (2024)
